Where two headings read alike, the source gives them in different places.
How the values were obtained:
hBD-2 [1] = assay: cells; assay type: cell-based, human; details: HaCat; for induction de la synthèse du peptide hBD-2: starting materials of the enzymatic synthesis, in words
From the text: (§1) Il est connu de WO 97/45101 que les esters d'α-alkylglucoside peuvent être utilisés comme agent anti-microbien et/ou anti-fongique pour agir en tant que conservateur dans une composition, pour la préserver d'un développement microbien. D'autre part, les propriétés moussantes des esters de méthyl glucose sont décrites dans Desai et al (« Sofw Journal Seife, Oele, Fette, Wachse, Verlag für chemische Industrie » 1991). • Modèle cellulaire : lignée cellulaire HaCat, kératynocytes d'origine humaine, primoculture de kératinocytes humains • Modèle tissulaire : • Explants de peau normale provenant de déchet opératoire de chirurgie esthétique • Explants de gencive normale provenant de déchet opératoire de chirurgie implantatoire ou d'épithélium gingival reconstruit à partir de cellules épithéliales orales primaires • ➢ Les cellules HaCat sont ensemencées et cultivées en plaque 6 puits à 200 000 cellules/puits sous un volume de 2 ml de milieu de culture DMEM 1640 : (Ref: Invitrogen) complémenté par 10 % de sérum de veau foetal (SVF, Ref : CH30160.02 Perbio-Hyclone) pendant 18 h (sur la nuit). • ➢ A T0 les cellules sont lavées avec du tampon Phosphate (PBS, Ref: 52100-039 Invitrogen) puis privées en sérum pour les rendre quiescentes pendant 24 h (ralentissement de leur croissance et élimination de toute trace de facteurs susceptibles de perturber les effets induits par les traitements ultérieurs). • ➢ A T0+24 h les cellules sont traitées par des cytokines pro-inflammatoires (TNF-α à 10 ng/ml, IL1-β à 10 ng/ml) ou des éléments bactériens (LPS à 50 ng/ml, SEB à 100 ng/ml) ou des actifs potentiels de type « alkyle mono- ou di-ester d'α,β-butylglucoside » dilués dans du DMEM (1 ml/puits); La durée du traitement est de 3 h à 37°C. • ➢ Les kératinocytes primaires sont préparés à partir de peau normale provenant de déchet opératoire de chirurgie esthétique. […]
La méthode de RT-PCR quantitative utilisée est décrite dans le matériel et méthode. […]

hBD-2 [2] = assay type: cell-based, human; details: skin explant, systemic, 3 µg/ml, 2 h and 15 h, in words
From the text: as §1, with “esthétique. Ils sont ensemencés et cultivés en plaque 24 puits à 60 000 cellules/puits sous un volume de 0,5 ml de milieu de culture KSFM (Ref : 37010 Invitrogen) complémenté par de l'EGF (Epidermal Growth Factor) à 1,5 ng/ml et du BPE (bovine pituitary extract) à 25 µg/ml pendant 24 h. • ➢ A J0, le milieu est remplacé par 0,5 ml de milieu KSFM complet, additionné de 1,2 nM de calcium. • ➢ A J+3, les cellules sont traitées par des cytokines pro-inflammatoires TNF-α et IL 1-β à 10 ng/ml ou des actifs potentiels de type « alkyle mono- ou di-ester d'α,β-butylglucoside » dilués dans 0,3 ml de milieu KSFM complet, en présence de 1,2 nM de calcium.” for “esthétique.”

S. aureus = assay: Adhesion of S. aureus on skin explant (modified Franz cell), count of adherent bacteria; assay type: cell-based, Staphylococcus aureus; details: topical 30 µg/ml
From the text: Pour révéler le complexe Antigène-Anticorps, le kit DAKO LSAB® (DAKO Corporation) est utilisé selon les recommandations du fournisseur. La révélation est réalisée à l'aide d'un substrat de la péroxydase : la 3,3'diaminobenzidine (DAB) (DAKO Corporation). La réaction enzymatique est révélée par une coloration brune. • ➢L'adhésion des micro-organismes est réalisée dans une cellule à double compartimentation, de type cellule de Franz modifiée. • ➢Une suspension de S.aureus (CIP 53.154) équivalente à 0,5.10^7 micro-organismes est introduite au sein du compartiment supérieur de la cellule. Le dispositif est incubé de 2 h à 37°C sous une atmosphère à 5 % de CO2. A la fin de cette période d'incubation, le surnageant est retiré afin d'éliminer les bactéries non adhérentes. Les échantillons de peau sont ensuite rincés deux fois avec 1 ml de mélange DMEM/HAMF12. Un dénombrement bactérien à l'issue de cette étape donne la proportion de bactéries ayant adhéré à l'explant (T+2 h). Un témoin est réalisé dans le but de déterminer l'adhésion non spécifique des bactéries. • ➢La stimulation de l'expression des β-défensines cutanées précède l'étape d'adhésion. Son objectif est d'étudier l'impact de l'induction des peptides antimicrobiens par des actifs potentiels de type « alkyle mono- ou di-ester d'α,β-butylglucoside » sur l'adhésion de souches bactériennes. Le traitement est effectué en topique ou en systémique. Le temps de stimulation des explants cutanés est de 24 h à 37°C en présence de 5 % de CO2.
Pour analyse, les explants sont retirés de leur cellule, des punchs de diamètres différents (3 mm, 4 mm et 6 mm) sont effectués pour un test MTT de survie, les marquages immuno-histologiques et les analyses des transcrits par RT-PCR. Le reste de peau est utilisé pour une estimation de la flore bactérienne adhérente.
Le dénombrement de la flore bactérienne adhérente exogène par unité de surface de peau a été effectué selon deux méthodes : • par dénombrement bactérien sur milieu solide • par comptage de la radioactivité émise (la souche contaminante étant marquée au H^3) est effectuée. […]
Après une application topique de 5 h et plusieurs rinçages de la surface épidermique d'un explant cutané, l'effet du traitement par l'α,β-LBG brut sur l'adhésion de S.aureus sur ce même explant a été quantifié par le dénombrement des germes adhérents à l'issue d'une mise en contact de 2 h. […]
Après application topique et plusieurs rinçages de la surface épidermique des explants cutanés, l'effet du traitement par les isoformes de l'ester de laurate de butylglucoside pur à 90 %, séparées, α seul, β seul, ou en mélange α,β-LBG (56 % α/44 % β) sur l'adhésion de S. aureus sur l'épiderme a été comparé après quantification des germes adhérents par dénombrement.

CCCCCCCCCCCC(=O)O [Acide Laurique]
induction de la synthèse du peptide hBD-2 (hBD-2 [1]): ne provoquent pas une induction
fold induction at 10 µg/mL (hBD-2 [1]; Homo sapiens, hBD-2 mRNA, 3 h, 10 µg/ml, vs unstimulated control, read-out: Facteur d'induction (FI)): 1.1

laurate de butylglucoside [α-LBG pur]
induction de l'expression du gène hBD-2 (hBD-2 [2]; listed as α-LBG pure): ne présente pas d'activité

laurate de butylglucoside [αβ-LBG pur]
induction de l'expression du gène hBD-2 (hBD-2 [2]): potentiel inducteur significatif surtout après une durée de traitement longue
baisse moyenne de l'adhésion de S. aureus (S. aureus; LBG pur à 90 %, vs untreated control): ~19%

laurate de butylglucoside [β-LBG pur]
limitation de l'adhésion de S. aureus (S. aureus; comparison of isoforms, in words): en moyenne plus actif sur la limitation de l'adhésion de S. aureus que l'isoforme α-LBG

αβ-butylglucoside
induction de la synthèse du peptide hBD-2 (hBD-2 [1]): ne provoquent pas une induction
